# Reference: patent US20260365670A1, “EGFR INHIBITORS AND USES THEREOF” (DIZAL (JIANGSU) PHARMACEUTICAL CO., LTD., priority 2022, published 2026)
# pIC50: −log10 of the molar value. Read-outs that look alike come from different tables or passages of the source.
# How the values were obtained:
# EGFR (C797S L858R) = target: T1, EGFR (C797S L858R) (Homo sapiens, UniProt P00533, C797S/L858R); experiment: Inhibition of EGFR (C797S L858R) biochemical enzymatic activity (HTRF); details: EGFR L858-C797S, 1 mM ATP, 1 h, room temperature, read-out: IC50 (nM) @L858-C797S
# T1 construct: purchased signalchem
# Outline: (§1)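 Recombinant kinases phosphorylated 1 μM biotinylated TK substrate with 1 mM ATP in buffer with 5 mM MgCl2, 1 mM MnCl2, 0.01% CHAPS, 1 mM DTT, 0.5% DMSO. Reaction ran 1 h at room temperature, stopped with EDTA-containing detection mix. HTRF 665/615 nm ratio gave IC50 via four-parameter logistic fit.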
# EGFR Exon19Del = target: T2, EGFR Exon19Del (Homo sapiens, UniProt P00533, DEL746-750); experiment: Inhibition of EGFR Exon19Del biochemical enzymatic activity (HTRF); details: EGFR Del19, 1 mM ATP, 1 h, room temperature, read-out: IC50 @Del19
# T2 construct: purchased Carna Bio
# Outline: as §1
# [1] = target: T3, EGFR[T790M/C797S/d746-750] (Homo sapiens, UniProt P00533, C797S/DEL746-750/T790M); experiment: Inhibition of EGFR[T790M/C797S/d746-750] biochemical enzymatic activity (HTRF); details: EGFR T790M-C797S-Del19, 1 mM ATP, 1 h, room temperature, read-out: IC50 (nM) @T790M - C797S - Del19
# T3 construct: purchased Carna Bio
# Outline: as §1
# EGFR[T790M/C797S/L858R] = target: T4, EGFR[T790M/C797S/L858R] (Homo sapiens, UniProt P00533, C797S/L858R/T790M); experiment: Inhibition of EGFR[T790M/C797S/L858R] biochemical enzymatic activity (HTRF); details: EGFR T790M-C797S-L858R, 1 mM ATP, 1 h, room temperature, read-out: IC50 (nM) @T790M- C797S - L858R
# T4 construct: purchased Carna Bio
# Outline: as §1
# [2] = test system: Ba/F3 cells expressing EGFR mutations; experiment: Cell proliferation assay, Ba/F3 cells expressing EGFR mutations (CellTiter-Glo, 72 hours); format: cell-based; details: CellTiter-Glo
# Outline: (§2)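 Seed Ba/F3 at 5000 cells/well and PC-9 at 500 cells/well (10% FBS RPMI1640); incubate overnight; add compound dilution series; read a G0 plate; incubate; read G3; GI50 from best-fit curve.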
# EGFR (d746-750 C797S) = target: T5, EGFR (d746-750 C797S) (Homo sapiens, UniProt P00533, C797S/DEL746-750); experiment: Inhibition of EGFR (d746-750 C797S) biochemical enzymatic activity (HTRF); details: EGFR Del19-C797S, 1 mM ATP, 1 h, room temperature, read-out: IC50 (nM) @Del19-C797S
# T5 construct: purchased signalchem
# Outline: as §1
# A-431 = experiment: Cell proliferation GI50, A-431 cells (Table 6); format: cell-based
# EGFR L858R/T790M = target: T6, EGFR L858R/T790M (Homo sapiens, UniProt P00533, L858R/T790M); experiment: Inhibition of EGFR L858R/T790M biochemical enzymatic activity (HTRF); details: EGFR L858R-T790M, 1 mM ATP, 1 h, room temperature, read-out: IC50 (nM) @L858R-T790M
# T6 construct: purchased Carna Bio
# Outline: as §1
# EGFR L858R = target: T7, EGFR L858R (Homo sapiens, UniProt P00533, L858R); experiment: Inhibition of EGFR L858R biochemical enzymatic activity (HTRF); details: 1 mM ATP, 1 h, room temperature, read-out: IC50 (nM) @L858R
# T7 construct: purchased Carna Bio
# Outline: as §1
# EGFR Exon19Del/T790M = target: T8, EGFR Exon19Del/T790M (Homo sapiens, UniProt P00533, DEL746-750/T790M); experiment: Inhibition of EGFR Exon19Del/T790M biochemical enzymatic activity (HTRF); details: EGFR Del19-T790M, 1 mM ATP, 1 h, room temperature, read-out: IC50 (nM) @Del19-T790M
# T8 construct: purchased Carna Bio
# Outline: as §1
# PC-9 = experiment: Cell proliferation assay, PC-9 cells (CellTiter-Glo, 72 hours); format: cell-based; details: PC9 cells, CellTiter-Glo, read-out: PC9 GI50
# Outline: as §2
# EGFR wild type = target: T9, EGFR wild type (Homo sapiens, UniProt P00533); experiment: Inhibition of EGFR wild type biochemical enzymatic activity (HTRF); details: EGFR WT, 1 mM ATP, 1 h, room temperature, read-out: IC50 (nM) @WT
# T9 construct: purchased Carna Bio
# Outline: as §1
# [3] = BaF3 cells, EGFR DEL19-C797S, read-out: DEL19-C797S/BaF3 GI50
# [4] = BaF3 cells, EGFR DEL19-T790-C797S, read-out: DEL19-T790-C797S/BaF3 GI50
# [5] = BaF3 cells, EGFR L858R, read-out: L858R/BaF3 GI50
# [6] = BaF3 cells, EGFR L858R-C797S, read-out: L858R-C797S/BaF3 GI50
# [7] = BaF3 cells, EGFR L858R-T790-C797S, read-out: L858R-T790-C797S/BaF3 GI50
# [8] = BaF3 cells, EGFR L858R-T790M, read-out: L858R-T790M/BaF3 GI50
# [9] = EGFR DEL19-T790M, read-out: DEL19-T790M GI50
# T2 sequence (P00533 with tags, fused parts or gaps DEL746-750 limits assumed): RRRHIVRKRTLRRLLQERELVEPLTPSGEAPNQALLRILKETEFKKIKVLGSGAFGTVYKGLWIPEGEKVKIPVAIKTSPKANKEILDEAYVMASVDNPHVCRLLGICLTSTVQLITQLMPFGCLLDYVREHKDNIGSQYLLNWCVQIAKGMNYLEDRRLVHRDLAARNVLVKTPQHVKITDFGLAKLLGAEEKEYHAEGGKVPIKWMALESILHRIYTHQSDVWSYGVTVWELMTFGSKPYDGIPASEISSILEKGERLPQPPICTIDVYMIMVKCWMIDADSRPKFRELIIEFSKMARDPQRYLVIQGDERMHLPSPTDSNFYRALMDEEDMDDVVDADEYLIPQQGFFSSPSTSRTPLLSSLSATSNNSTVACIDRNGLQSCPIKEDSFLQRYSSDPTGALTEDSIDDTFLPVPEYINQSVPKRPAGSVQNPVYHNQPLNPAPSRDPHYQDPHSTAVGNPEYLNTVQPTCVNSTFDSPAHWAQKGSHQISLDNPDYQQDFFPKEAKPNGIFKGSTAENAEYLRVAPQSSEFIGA
# T6 sequence (P00533 25-1210 T790M/L858R): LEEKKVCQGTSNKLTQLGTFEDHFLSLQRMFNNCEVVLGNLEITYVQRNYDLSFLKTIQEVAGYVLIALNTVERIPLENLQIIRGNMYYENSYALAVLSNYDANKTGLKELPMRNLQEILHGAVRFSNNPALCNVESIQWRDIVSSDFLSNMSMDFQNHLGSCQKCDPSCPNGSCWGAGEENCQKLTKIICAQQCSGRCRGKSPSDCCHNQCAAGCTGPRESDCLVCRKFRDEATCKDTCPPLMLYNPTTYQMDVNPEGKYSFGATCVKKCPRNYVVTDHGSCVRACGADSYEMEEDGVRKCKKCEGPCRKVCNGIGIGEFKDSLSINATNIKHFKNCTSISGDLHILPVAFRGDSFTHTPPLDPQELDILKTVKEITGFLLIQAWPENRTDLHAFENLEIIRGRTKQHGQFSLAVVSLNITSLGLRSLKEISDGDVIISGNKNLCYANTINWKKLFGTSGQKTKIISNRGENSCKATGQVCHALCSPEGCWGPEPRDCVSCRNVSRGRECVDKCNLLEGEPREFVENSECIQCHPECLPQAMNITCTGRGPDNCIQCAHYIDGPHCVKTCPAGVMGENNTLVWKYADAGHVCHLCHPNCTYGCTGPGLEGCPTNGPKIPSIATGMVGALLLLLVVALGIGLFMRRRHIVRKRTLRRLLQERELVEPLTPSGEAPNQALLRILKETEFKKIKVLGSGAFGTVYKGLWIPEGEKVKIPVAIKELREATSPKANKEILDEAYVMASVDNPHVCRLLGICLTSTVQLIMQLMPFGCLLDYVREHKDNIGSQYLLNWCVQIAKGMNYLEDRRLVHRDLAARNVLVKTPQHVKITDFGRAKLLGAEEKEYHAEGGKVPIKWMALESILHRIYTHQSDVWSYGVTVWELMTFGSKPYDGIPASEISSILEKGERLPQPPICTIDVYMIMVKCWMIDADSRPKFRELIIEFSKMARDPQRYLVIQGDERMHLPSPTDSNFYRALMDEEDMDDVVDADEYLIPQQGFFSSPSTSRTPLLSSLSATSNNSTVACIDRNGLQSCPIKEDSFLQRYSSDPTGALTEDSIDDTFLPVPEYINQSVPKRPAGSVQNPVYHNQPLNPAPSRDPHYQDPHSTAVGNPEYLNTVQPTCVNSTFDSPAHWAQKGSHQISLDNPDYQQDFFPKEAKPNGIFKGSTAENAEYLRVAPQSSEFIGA
# T8 sequence (P00533 with tags, fused parts or gaps DEL746-750/T790M limits assumed): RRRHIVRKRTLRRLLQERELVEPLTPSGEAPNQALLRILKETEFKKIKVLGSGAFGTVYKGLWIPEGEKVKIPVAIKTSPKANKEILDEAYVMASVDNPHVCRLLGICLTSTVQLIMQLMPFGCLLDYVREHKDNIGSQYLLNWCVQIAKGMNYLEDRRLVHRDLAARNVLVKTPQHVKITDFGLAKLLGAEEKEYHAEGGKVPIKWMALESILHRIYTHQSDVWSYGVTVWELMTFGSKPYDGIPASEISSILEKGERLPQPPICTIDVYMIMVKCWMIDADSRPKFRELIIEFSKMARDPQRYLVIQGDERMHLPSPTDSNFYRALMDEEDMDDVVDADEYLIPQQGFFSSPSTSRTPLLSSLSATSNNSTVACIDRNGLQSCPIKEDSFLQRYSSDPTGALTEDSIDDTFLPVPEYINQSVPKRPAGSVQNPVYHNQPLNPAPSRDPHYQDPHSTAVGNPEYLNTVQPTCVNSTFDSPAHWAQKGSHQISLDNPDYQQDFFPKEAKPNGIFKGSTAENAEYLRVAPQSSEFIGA
# T1 sequence (P00533 25-1210 C797S/L858R): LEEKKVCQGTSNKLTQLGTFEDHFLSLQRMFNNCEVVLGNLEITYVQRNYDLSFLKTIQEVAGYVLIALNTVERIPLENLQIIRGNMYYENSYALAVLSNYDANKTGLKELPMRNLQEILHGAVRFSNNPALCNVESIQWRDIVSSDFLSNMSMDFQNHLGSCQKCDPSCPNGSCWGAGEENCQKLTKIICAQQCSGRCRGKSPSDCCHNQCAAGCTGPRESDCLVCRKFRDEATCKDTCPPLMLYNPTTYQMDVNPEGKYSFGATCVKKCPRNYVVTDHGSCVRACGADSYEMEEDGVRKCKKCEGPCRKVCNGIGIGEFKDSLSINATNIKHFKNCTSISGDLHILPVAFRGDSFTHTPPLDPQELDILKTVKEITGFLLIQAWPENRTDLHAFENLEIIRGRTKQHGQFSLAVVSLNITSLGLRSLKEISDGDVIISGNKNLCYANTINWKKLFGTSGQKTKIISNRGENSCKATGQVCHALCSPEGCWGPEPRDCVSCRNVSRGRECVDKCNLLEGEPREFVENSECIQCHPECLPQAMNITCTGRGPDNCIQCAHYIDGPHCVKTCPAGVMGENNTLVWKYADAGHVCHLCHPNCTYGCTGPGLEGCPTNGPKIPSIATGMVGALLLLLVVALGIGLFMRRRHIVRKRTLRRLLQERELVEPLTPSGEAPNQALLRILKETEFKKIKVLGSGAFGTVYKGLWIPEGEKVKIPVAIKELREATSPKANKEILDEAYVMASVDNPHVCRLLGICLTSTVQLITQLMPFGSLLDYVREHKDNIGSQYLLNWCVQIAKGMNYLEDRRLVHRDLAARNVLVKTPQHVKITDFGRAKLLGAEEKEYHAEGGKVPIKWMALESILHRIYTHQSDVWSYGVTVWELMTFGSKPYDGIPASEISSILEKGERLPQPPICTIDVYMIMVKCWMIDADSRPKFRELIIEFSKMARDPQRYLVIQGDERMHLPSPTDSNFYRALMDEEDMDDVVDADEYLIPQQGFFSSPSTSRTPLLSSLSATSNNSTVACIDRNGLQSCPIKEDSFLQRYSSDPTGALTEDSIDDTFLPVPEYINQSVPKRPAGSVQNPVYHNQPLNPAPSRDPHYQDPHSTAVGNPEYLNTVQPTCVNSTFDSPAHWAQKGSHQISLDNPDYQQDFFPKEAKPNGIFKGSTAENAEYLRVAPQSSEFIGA
# T9 sequence (P00533 25-1210): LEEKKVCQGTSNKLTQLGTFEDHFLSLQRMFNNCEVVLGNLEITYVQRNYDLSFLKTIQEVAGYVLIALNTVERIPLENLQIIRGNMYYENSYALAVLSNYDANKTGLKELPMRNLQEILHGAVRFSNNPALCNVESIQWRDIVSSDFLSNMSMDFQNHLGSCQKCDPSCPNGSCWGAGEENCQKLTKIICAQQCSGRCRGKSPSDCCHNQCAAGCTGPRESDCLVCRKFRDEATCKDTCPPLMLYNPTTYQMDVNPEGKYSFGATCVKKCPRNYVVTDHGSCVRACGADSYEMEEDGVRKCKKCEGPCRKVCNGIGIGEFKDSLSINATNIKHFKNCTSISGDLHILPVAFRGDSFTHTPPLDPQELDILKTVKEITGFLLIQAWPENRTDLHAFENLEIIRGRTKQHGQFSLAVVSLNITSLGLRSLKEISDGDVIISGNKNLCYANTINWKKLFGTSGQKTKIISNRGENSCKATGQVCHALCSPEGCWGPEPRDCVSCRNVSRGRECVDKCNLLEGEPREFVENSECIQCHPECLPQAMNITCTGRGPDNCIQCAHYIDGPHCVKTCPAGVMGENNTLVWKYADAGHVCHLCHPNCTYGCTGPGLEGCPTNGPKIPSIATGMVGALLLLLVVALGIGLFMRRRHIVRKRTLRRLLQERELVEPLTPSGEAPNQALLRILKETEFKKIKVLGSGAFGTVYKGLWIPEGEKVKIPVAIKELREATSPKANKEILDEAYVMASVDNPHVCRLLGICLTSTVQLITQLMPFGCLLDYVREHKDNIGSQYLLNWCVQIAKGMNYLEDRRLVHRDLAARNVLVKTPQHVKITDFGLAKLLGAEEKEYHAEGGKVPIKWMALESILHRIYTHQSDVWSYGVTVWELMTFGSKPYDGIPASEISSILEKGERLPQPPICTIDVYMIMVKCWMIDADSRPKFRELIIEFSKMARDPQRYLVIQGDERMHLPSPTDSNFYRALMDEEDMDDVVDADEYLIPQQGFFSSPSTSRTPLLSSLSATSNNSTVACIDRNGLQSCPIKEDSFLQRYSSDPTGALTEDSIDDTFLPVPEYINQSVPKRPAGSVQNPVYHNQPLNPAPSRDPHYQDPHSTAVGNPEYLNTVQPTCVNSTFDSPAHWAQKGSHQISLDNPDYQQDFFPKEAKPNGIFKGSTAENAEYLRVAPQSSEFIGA
IC50 (EGFR (C797S L858R)) [nM],pIC50 (EGFR Exon19Del),IC50 [1] [nM],IC50 (EGFR[T790M/C797S/L858R]) [nM],"GI50 [2, 3] [nM]","GI50 [2, 4] [nM]","GI50 [2, 5] [nM]","GI50 [2, 6] [nM]","GI50 [2, 7] [nM]","GI50 [2, 8] [nM]","GI50 [2, 9] [nM]",IC50 (EGFR (d746-750 C797S)) [nM],GI50 (A-431; A-431 cells) [nM],IC50 (EGFR L858R/T790M) [nM],IC50 (EGFR L858R) [nM],IC50 (EGFR Exon19Del/T790M) [nM],GI50 (PC-9) [nM],IC50 (EGFR wild type) [nM],"GI50 (A-431; Homo sapiens, A-431, A-431 cells) [nM]",Structure (SMILES)
31,8.20,4.9,9.3,0.75,3.9,4.6,8,15,14,3.2,3.5,3160,10,54,5.9,46,825,–,"COCCN(C)c1ccc2nc3n(c2c1)C12CCC(CN(CCOc4c(cnn4C)-c4cc(cn(C)c4=O)C(=O)N3)C1)C2 (single isomer, unassigned) [Example A90B]"
> 5000,6.13,> 5000,> 5000,74,146,324,303,366,884,231,1650,–,> 5000,3720,> 5000,1300,> 5000,1180,"CN1CCC2(CN(c3ccc4nc5n(c4c3)C34CCC(CN(CCOc6c(cnn6C)-c6cc(cn(C)c6=O)C(=O)N5)C3)C4)C2)C(F)(F)C1 (single isomer, unassigned) [Example A91A]"
8,8.40,6.7,6.1,0.75,2.2,2.6,3.9,4.6,11,3.1,2.9,1690,12,11,9.7,25,110,–,"CN1CCC2(CN(c3ccc4nc5n(c4c3)C34CCC(CN(CCOc6c(cnn6C)-c6cc(cn(C)c6=O)C(=O)N5)C3)C4)C2)C(F)(F)C1 (single isomer, unassigned) [Example A91B]"
2790,6.24,3960,> 5000,102,112,113,122,152,310,80,449,2100,> 5000,1150,> 5000,522,> 5000,–,"CN1CC2(C1)CN(c1ccc3nc4n(c3c1)C13CCC(CN(CCOc5c(cnn5C)-c5cc(cn(C)c5=O)C(=O)N4)C1)C3)C2 (single isomer, unassigned) [Example A92A]"
2.6,8.82,2.3,2.2,0.5,1.1,0.82,1.6,0.94,3,1.2,1,842,2.3,3.2,2.6,9.8,16,–,"CN1CC2(C1)CN(c1ccc3nc4n(c3c1)C13CCC(CN(CCOc5c(cnn5C)-c5cc(cn(C)c5=O)C(=O)N4)C1)C3)C2 (single isomer, unassigned) [Example A92B]"
